Measured values: patent US20100130597A1, “DNA-PKCS MODULATES ENERGY REGULATION AND BRAIN FUNCTION” (The United State of America, as represented by the …, priority 2007, published 2010)

How the values were obtained:
[1] = Glucose levels, insulin tolerance and glucose tolerance tests in treated mice; format: in vivo; details: mice, summary statement
Description: The therapeutic potential of DNA-PKcs inhibitors to treat insulin resistance and diabetes was tested in vivo using high-fat induced type 2 diabetes and obesity models. We examined the effects of DNA-PKcs inhibition by feeding C57BL6/J mice with Compound 36 (Cpd36) or vehicle. Mice were treated with Cpd36 (8 mg/kg body weight) twice daily by oral gavage for three months in all efficacy studies shown in FIGS. 40-47.

Light/dark chamber test = format: in vivo; details: treated vs untreated mice
Description: WT and SCID mice were tested in another anxiety test using the light-dark box (Bourin and Hascoet, Eur J Pharmacol 463:55 (2003)). The light-dark box test is based on the innate aversion of rodents to brightly illuminated areas and on the spontaneous exploratory behavior of rodents in response to a mildly stressful situation, that is, a novel environment and light (Crawley and Goodwin Pharmacol Biochem Behav 13:167, 1980). In the light-dark test, increased activity in the light compartment indicates decreased anxiety.
(§1) Elevated plus maze tests, light/dark chamber tests, forced swim tests (FST) and hot plate tests were performed as described earlier.

Forced swim test (FST) = format: in vivo, mice; details: data not shown
Description: as §1

AMPK [2] = experiment: AMPK activation in quiescent MCF7 cells; format: cell-based; details: 1 and 2.5 μM, FIG. 20
Description: MCF7 cells were obtained from the ATCC. MCF7 cells in G0 were treated with varying doses of H2O2 (FIG. 1). The cells were examined while in the G0 phase of their life cycle to mimic the post-mitotic state of cells in vivo. Low passage MCF-7 cells in G0 were exposed to varying concentrations of H2O2 for 60 minutes with or without Euk-134 or ionizing radiation (5 Gy). For Western blot analysis of DNA-PKcs activation and the activation of other signaling pathways in this study, the following antibodies were used: ACC1 (Cell Signaling); p-ACC1 (Upstate); AMP-activated protein kinase (AMPK; Cell Signaling); p-AMPK(T172) (Cell Signaling); DNA-PK (Lab Vision); p53 (Novocastra); p-DNA-PK(S2056) (Abeam); p-p53(S15) (Cell Signaling); γ-H2AX (Upstate); 53BP1 (Novus Biologicals).
ENLITEN ATP assay kit (Promega) and ApoGlow assay kit (Cambrex), respectively. […] To determine whether the AMPK-inhibitory function of DNA-PKcs is cell autonomous, quiescent MCF7 cells were treated with 1 and 2.5 μM NU7026.

AMPK [3] = experiment: AMPK activation in C2C12 cells; format: cell-based
Description: Expression of PGC-1α (FIGS. 12-14 and 49) can be induced by multiple proteins, including the energy sensor AMPK and the longevity protein Sirt1. Nutrient deprivation stimulates AMPK activity due to increasing AMP/ATP ratios. AMPK is activated by LKB1 kinase. Alternately, AMPK is also activated by a Ca^2+/calmodulin-dependent protein kinase (CaMK) without AMP. In order to test which upstream kinase plays a major role for AMPK activation after DNA-PKcs inhibition, C2C12 cells were treated with NU7026 in the presence or absence of a known CaMK chemical inhibitor ST0609. […] This raised the possibility that DNA-PKcs suppresses LKB1 and subsequently AMPK.

Sirt1 and PGC-1α = Sirt1 and PGC-1α expression in C2C12 myoblasts; format: cell-based
Description: (§2) Increased mitochondrial function boosts energy production and physical endurance. […] Further tests were therefore conducted to ascertain whether DNA-PKcs inhibitor elevates mitochondrial biogenesis and expression of PGC-1α and Sirt, which are important for mitochondrial biogenesis. […] It is important to note that only 2.5 μM of NU7026 was required to induce a similar level of Sirt1 to that induced by 25-50 μM Resveratrol, a well-known, potent Sirt1 activator.

C2C12 cells = experiment: Mitochondrial DNA copy number in C2C12 cells; format: cell-based; details: C2C12 cells, 2.5 μM, FIG. 49C
Description: Quantitative Real-Time PCR was used to assess the relative amounts of nuclear DNA and mtDNA, to permit assessment of the ratio of mtDNA to nucleic DNA, which reflects the tissue concentration of mitochondria per cell. Muscle tissues were homogenized and digested with Proteinase K overnight in a lysis buffer for DNA extraction by conventional phenol-chloroform method. Quantitative PCR was performed using the following primers: […]
as §2, with “activator. In FIG. 49C, mitochondrial DNA copy number increased (>1.8 fold) in C2C12 cells after 2.5 μM NU7026 treatment.” for “activator.”

LKB1 [4] = experiment: LKB1 activation (LKB1 phosphorylation) in C2C12 cells; format: cell-based; details: NU7026 2.5 μM, Resveratrol 50 μM, FIG. 51A
Description: Cells were treated with DNA-PKcs inhibitors to ascertain whether DNA-PKcs suppresses LKB1 activity in vitro.

LKB1 [5] = experiment: LKB1 IP kinase assay of muscle of treated mice; format: in vivo; details: mice treated with a low-dose, data not shown
PGC-1α = PGC-1α expression in AMPK α1/α2-null MEFs; format: cell-based, mouse; details: FIG. 53
From the text: AMPK is a heterotrimer kinase composed of a catalytic α subunit, and the β and γ regulatory subunits. There are two isoforms (α1 and α2) of the catalytic α subunit.

[6] = Blood-brain barrier penetration inferred from behavioural effects; format: in vivo, mice; details: inferred from decreased anxiety/depression at a low-dose
From the text: For any central nervous system drugs, a major rate-limiting step for uptake into the brain is BBB permeability. […] The BBB is an essential physiological barrier for the maintenance and regulation of brain function. It is comprised of brain microvascular endothelial cells that are connected by tight junctions. This transvascular route to the brain is impenetrable to the majority of drugs. Enhanced BBB permeability is obtained, for example, by increasing the lipid solubility of the water-soluble molecules.

[7] = test system: mouse embryonic fibroblasts and Chinese hamster ovary cells; details: Veuger et al 2003; Griffin et al. 2005; cited from earlier work
leukemic cells = details: Willmore et al. Blood 103:4659, 2004; cited from earlier work

O=c1cc(N2CCOCC2)oc2c1ccc1ccccc12 [NU7026, 2-(morpholin-4-yl)-benzo[h]chomen-4-one]
serum glucose levels [1]: decreased serum glucose levels | time in the dark compartment (Light/dark chamber test): less time in the dark compartment | time in the light compartment (Light/dark chamber test): more time in the light compartment | time to enter the light chamber (Light/dark chamber test): quicker to enter the light chamber | immobility in the forced swim test (Forced swim test (FST)): decreased immobility | AMPK activation (AMPK [2]): activated AMPK | AMPK activation (AMPK [3]; C2C12 cells, absence of STO609, FIG. 50): activated | AMPK activation (AMPK [3]; C2C12 cells, presence of CaMK inhibitor STO609, FIG. 50): still observed | AMPK activation (AMPK [3]; differentiated C2C12 myoblasts, data not shown): also activated AMPK | concentration required to induce a similar level of Sirt1 (Sirt1 and PGC-1α): 2.5 µM | PGC-1α and Sirt1 expression (Sirt1 and PGC-1α; FIG. 49): dramatically elevated | mitochondrial DNA copy number increase (C2C12 cells): > 1.8 fold | LKB1 activation (LKB1 phosphorylation) (LKB1 [4]): caused LKB1 activation | LKB1 activity in muscles (LKB1 [5]): strong induction of LKB1 activity | PGC-1α expression (PGC-1α): not able to induce PGC-1α expression | blood-brain barrier (BBB) penetration [6]: can penetrate the blood-brain barrier (BBB) efficiently | sensitization to radiation in vitro [7]: sensitize mouse embryonic fibroblasts and Chinese hamster ovary cells to radiation | sensitization to topoisomerase II inhibitors (leukemic cells): sensitize leukemic cells to topoisomerase II inhibitors
